Values after ≈ are worked out from the molar mass of the structure shown.

One experiment relates to P388. As to the kind of experiment: Cytotoxicity against mouse P388 cells after 4 days. Type of experiment: functional. As to conditions: P388, 96 h, read-out: ED50 (the source's name).
The test system of another experiment is L1210. The experiment in a line: Cytotoxicity against mouse L1210 cells after 4 days. It is filed as functional. The settings on record: L1210, 96 h, read-out: ED50 (the source's name).

`CC1=C(C#C/C(C)=C/C=C/C(C)=C/C=C/C=C(C)/C=C/C=C(\C)C(=O)C[C@@]23O[C@]2(C)C[C@@H](O)CC3(C)C)C(C)(C)C[C@H](O)C1` [HALOCYNTHIAXANTHIN]: the EC50 with P388 worked out at 12.5 µg/mL (≈ 20.9 µM); in the experiment with L1210, 25 µg/mL (≈ 41.7 µM).

As to `CC1=CC(=O)CC(C)(C)[C@@]1(O)CC(=O)/C(C)=C/C=C/C(C)=C/C=C/C=C(C)/C=C/C=C(\C)C#CC1=C(C)C[C@@H](O)CC1(C)C` [AMAROUCIAXANTHIN B], the EC50 in the experiment on P388 was 300 µg/mL (≈ 503 µM); in the experiment with L1210 it was 100 µg/mL (≈ 168 µM).

`CC1=CC(=O)CC(C)(C)[C@@]1(O)CC(=O)/C(C)=C/C=C/C(C)=C/C=C/C=C(C)/C=C/C=C(\C)C=C=C1C(C)(C)C[C@H](O)C[C@@]1(C)O` [AMAROUCIAXANTHIN A]: the EC50 worked out at 150 µg/mL (≈ 244 µM) in the experiment with P388 and 50 µg/mL (≈ 81.3 µM) with L1210.

For the origin of these results see ChEMBL document CHEMBL1151660, “Carotenoids of tunicates. III. The structural elucidation of two new marine carotenoids, amarouciaxanthin A and B” (1985).
